# Experimental data taken from US20040019026A1, “Compounds useful for treating hypertriglyceridemia” (priority 2000, published 2004).
# Where “and” joins values, the source holds several entries; their conditions need not be identical. Identical values can stand only once.
# Key:
# [1] = test system: male BKS.Cg-m+/+Leprdb mice; experiment: Buccal administration to diabetic mice: fasting plasma triglycerides (Example 3); type: in vivo
# Excerpt: The following example, tested the effects of buccal administration of 16α-fluoro-5-andorsten-17-one (hereinafter “drug”).
# Eight-week-old male BKS.Cg-m^+/+Lepr^db mice were obtained from Jackson Laboratories. The mice were initially housed five per cage on Alphacel bedding with ad libitum access to Purina 5015 chow and acidified water. The mice wee housed in the Central Animal Facility (6th Floor, Pharmacy building) with twelve hours of alternating light and darkness.
# Five days later, the chow was removed from the mice at approximately 3:30 p.m. This was done so that a fasting plasma glucose level could be obtained on the next day. The next day, a pretreatment plasma glucose determination was made. The mice were lightly anesthetized with Isoflurane and were bled form the orbital sinus (˜400 μL of blood was taken). The blood was obtained between 10:00 a.m. and noon. Blood was kept on ice until analysis. After the blood for the glucose measurement was taken out, the remaining blood was centrifuged at 3000×g for 15 minutes. The plasma was removed and frozen for use in determining plasma triglyceride levels.
# Plasma triglyceride levels were determined with a Sigma kit (334-UV). The determination is based on the enzymatic hydrolysis of triglycerides to glycerol and free fatty acids by lipase. Glycerol was subsequently phosphorylated by ATP to produce glycerol-I-phosphate and ADP. ATP was regenerated by a pyruvate kinase-catalyzed reaction between ADP […] with simultaneous oxidation of equimolar amounts of NADH in the presence of lactate dehydrogenase. NADH absorbs at 340 nm, thus the decrease in absorbance, measured at this wavelength, is directly proportional to the triglyceride concentration in this sample.
# Triglyceride Reagent A (containing ATP, lactate dehydrogenase, lipase, NADH, phosphoenol pyruvate, pyruvate kinase) and Triglyceride Reagent B were reconstituted with 10 mL and 2 mL of distilled water respectively. The Sample Reagent was prepared by adding 0.25 mL of Triglyceride reagent B to 10 mL to Triglyceride Reagent A. Blank, standard (50, 100 and 200 mg/dL) and sample tubes were prepared. One mL of Sample Reagent was added to all tubes. To the Blank tube, 20 μL of distilled water was added. For each Sample tube, 20 μL of plasma was added to the tube. All tubes were incubated at room temperature for 10 minutes. The tubes were read against a Reference containing distilled water. Triglyceride concentration in the samples were calculated by subtracting the absorbance of the Sample form the absorbance of the Blank and using the following formula: […]
# One week after obtaining the mice, the mice were distributed into either groups of 6 mice (Control, buccal and 5 mg/kg drug buccal), or 7 mice (10 mg/kg drug buccal). The mice were weighed.
# The buccally administered groups were treated with a suspension of drug, 16α-5-androsten-17-one obtained from Eminent Services Corp. The suspension consisted of 100 mg/mL of micronized fluasterone (16α-fluoro-5-androsten-17-one) in 0.9% saline plus 2% Tween 80 and 0.4% carboxymethyl cellulose. The mice were lightly anesthetized with isoflurane and then injected i.m. with 0.05 mL of a solution of ketamine (50 mg/kg), xylazine (10 mg.kg) and atropine (0.1 mg/kg) injected near tail). Approximately 10 minutes post injection, while the animals were anesthetized, the mice were placed on their backs and were treated with one-half of the dose of drug necessary in each buccal area. The mice remained anesthetized and on their backs for approximately 30 minutes post-treatment. The 5 mg/kg drug group was treated with 2.04 μL of suspension (1.02 μL per buccal area) and the 10 mg/kg drug group was treated with 4.2 μL(2.1 μL per buccal area) while the Control Buccal group received 4.2 μL (2.1 μL per buccal area) for the duration of the experiment. The cages of the mice were placed on heating pads on a low temperature to prevent loss of animals due to hypothermia during anesthesia. […]
# [2] = test system: male BKS.Cg-m+/+Leprdb mice; experiment: Seminal vesicle weights, androgenic potency (Example 9); type: in vivo
# Excerpt: Eight week old male BKS.Cg-m^+/+Lepr^db mice were obtained from Jackson Laboratories. These mice have a point mutation in the leptin receptor gene and produce a truncated receptor with impaired signaling capacity. These animals are severely insulin resistant and manifest an uncontrolled rise in blood sugar, severe depletion of the insulin-producing beta-cells of the pancreatic islets, and death by 10 months of age. The male animals also have very low plasma testosterone levels and as a consequence undeveloped seminal vesicle glands. Administration of androgens to these mice produces an increase in seminal vesicle weights similar to that seen in castrated males. Thus these animals can be used to assess androgenic potency of various compounds.
# The mice were housed five per cage on Alphacel bedding with ad libitum access to Purina 5015 chow and acidified water. The mice were housed in the Central Animal Facility (6th floor, Pharmacy building) with twelve hours of alternating light and darkness.
# A week later, the mice were treated subcutaneously (s.c.) with 0.05 mL fluasterone (16α-fluoro-5-androsten-17-one) suspended in an Emulphor-saline vehicle to give either a dose of 5 mg/kg s.c. or 20 mg/kg s.c. or intraperitoneally (i.p.) with 0.05 mL of fluasterone suspended in an Emulphor-saline vehicle to give a dose of 5 mg/kg. The Control mice received the Emulphor-saline vehicle s.c.
# All the mice were anesthetized lightly with isoflurane before treatment with fluasterone to minimize the risk of stressing the mice while giving the s.c. dose. Their food was removed the afternoon before administration with drug and the chow was to the mice the next morning immediately after treatment. All the mice had their chow removed daily and restored just after fluasterone administration. During the week, the mice had access to chow for approximately 6½ hours, while on the weekends, the mice had approximately 4½ hours of access to chow. Mice were treated daily (weekdays and weekends).
# Mice were treated daily with fluasterone, for about one month. Then the mice were sacrificed with an overdose of CO2. The seminal vesicles of each mouse were excised, cleaned of adventitia and the coagulating glands, and any liquid was pressed out and then the glands were weighed on a Mettler AE50 balance.
# [3] = 5 mg/kg, i.p. daily about one month, individual mice
# [4] = 5 mg/kg, s.c. daily about one month, individual mice
# [5] = 20 mg/kg, s.c. daily about one month, individual mice
compound,measurement,setting,value
"C[C@]12CCCCC1=CC[C@@H]1[C@@H]2CC[C@]2(C)C(=O)[C@H](F)C[C@@H]12 [fluasterone, 16α-fluoro-5-androsten-17-one]",Plasma triglycerides,"[1]; 5 mg/kg buccal group, pre-treatment, group mean",138.4 ± 44.6 mg/dL
same,Plasma triglycerides,"[1]; 5 mg/kg buccal group, pre-treatment, individual mice, listed as drug",116.8 mg/dL and 222.8 mg/dL and 120.6 mg/dL and 110.7 mg/dL and 153.8 mg/dL and 105.9 mg/dL
same,Plasma triglycerides,"[1]; 5 mg/kg buccal, after 6 days of treatment, group mean, p < 0.01 vs. control buccal",110.6 ± 28.0 mg/dL
same,Plasma triglycerides,"[1]; 5 mg/kg buccal, after 6 days of treatment, individual mice, listed as drug",77.2 mg/dL and 106.0 mg/dL and 87.3 mg/dL and 414.0 mg/dL and 146.6 mg/dL and 105.4 mg/dL
same,Plasma triglycerides,"[1]; 5 mg/kg buccal, after 13 days of treatment, group mean, p < 0.0005 vs. Control buccal",82.0 ± 12.3 mg/dL
same,Plasma triglycerides,"[1]; 5 mg/kg buccal, after 13 days of treatment, individual mice, listed as drug",97.8 mg/dL and 89.3 mg/dL and 65.3 mg/dL and 79.1 mg/dL and 78.3 mg/dL
same,Plasma triglycerides,"[1]; 10 mg/kg buccal group, pre-treatment, group mean",118.7 ± 38.1 mg/dL
same,Plasma triglycerides,"[1]; 10 mg/kg buccal group, pre-treatment, individual mice, listed as drug",97.1 mg/dl and 102.1 mg/dl (2×) and 89.4 mg/dl and 184.4 mg/dl and 93.7 mg/dl and 162.1 mg/dl
same,Plasma triglycerides,"[1]; 10 mg/kg buccal, after 6 days of treatment, group mean, p < 0.01 vs. Control buccal",96.5 ± 32.4 mg/dL
same,Plasma triglycerides,"[1]; 10 mg/kg buccal, after 6 days of treatment, individual mice, listed as drug",108.7 mg/dL and 83.5 mg/dL and 96.8 mg/dL and 61.2 mg/dL and 104.6 mg/dL and 64.3 mg/dL and 156.7 mg/dL
same,Plasma triglycerides,"[1]; 10 mg/kg buccal, after 13 days of treatment, group mean, P < 0.001 vs. Control buccal",104.0 ± 16.6 mg/dL
same,Plasma triglycerides,"[1]; 10 mg/kg buccal, after 13 days of treatment, individual mice, listed as drug",102.0 mg/dL and 83.5 mg/dL and 93.6 mg/dL and 133.5 mg/dL and 118.1 mg/dL and 97.8 mg/dL and 99.2 mg/dL
same,Seminal Vesicles,[2]; [3],85.6 mg and 81.8 mg and 71.9 mg and 81.0 mg
same,s.v./b.w.,[2]; [3],2.1084 and 1.6166 and 1.5630 and 2.0301
same,Seminal Vesicles,"[2]; 5 mg/kg, i.p., Average, p < 0.005",80.1 p < 0.005 mg
same,s.v./b.w.,"[2]; 5 mg/kg, i.p., Average, p < 0.01",1.8295
same,Seminal Vesicles,[2]; [4],40.7 mg and 43.4 mg and 44.5 mg and 42.2 mg and 41.9 mg
same,s.v./b.w.,[2]; [4],0.8568 and 1.1361 and 0.9570 and 0.9420 and 0.9566
same,Seminal Vesicles,"[2]; 5 mg/kg, s.c., Average",42.5 mg
same,s.v./b.w.,"[2]; 5 mg/kg, s.c., Average, n.s.",0.9697 n.s.
same,Seminal Vesicles,[2]; [5],39.6 mg and 35.8 mg and 35.4 mg and 34.6 mg
same,s.v./b.w.,[2]; [5],0.8684 and 1.0000 and 0.8872 and 0.8065
same,Seminal Vesicles,"[2]; 20 mg/kg, s.c., Average, n.s.",36.4 n.s. mg
same,s.v./b.w.,"[2]; 20 mg/kg, s.c., Average, n.s.",0.8905 n.s.
same,Androgenicity,"[2]; 200 mg/kg p.o. dose, mouse",lack of androgenicity
same,Effect on seminal vesicle weights,[2]; i.p. route,highly significant increase in seminal vesicle weights
same,Effect on seminal vesicle weights,[2]; s.c. route at much higher doses,no apparent effect on seminal vesicle weights
